Reference: the supplement of paper PMC8612539
Converted amounts (≈) assume the structure as drawn.

Tested on: Mannheimia haemolytica
Assay: minimum inhibitory concentration (MIC)
Method: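 Broth microdilution MIC (Sensititre BOPO7F bovine plate, CLSI methods) of 19 antimicrobials against field isolates of P. multocida, M. haemolytica, H. somni (deep nasopharyngeal swabs) and E. coli, Enterococcus spp. (rectal swabs) from weaned dairy heifers. Incubation 16-24 h at 35 C. MIC is the lowest concentration preventing visible growth. Values with <= or > lie at the tested range limits. Trimethoprim-sulfamethoxazole is given as the trimethoprim component of a 1:19 mixture.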

CCCN1C[C@H](C)[C@@H](O)[C@](C)(O)[C@@H](CC)OC(=O)[C@H](C)[C@@H](O[C@H]2C[C@@](C)(OC)[C@@H](O)[C@H](C)O2)[C@H](C)[C@@H](O[C@@H]2O[C@H](C)C[C@H](N(C)C)[C@H]2O)[C@](C)(O)C[C@H]1C [Gamithromycin]
Conditions | minimum inhibitory concentration [µg/mL]
isolate (source animal id): 8 | ≤ 1
isolate (source animal id): 13 | ≤ 1
isolate (source animal id): 18 | ≤ 1
isolate (source animal id): 21 | ≤ 1
isolate (source animal id): 25 | 4 (≈ 5.15 µM)
isolate (source animal id): 27 | 4 (≈ 5.15 µM)
isolate (source animal id): 28 | 2 (≈ 2.57 µM)
isolate (source animal id): 30 | ≤ 1
isolate (source animal id): 31 | 2 (≈ 2.57 µM)
isolate (source animal id): 32 | ≤ 1
isolate (source animal id): 34 | ≤ 1
isolate (source animal id): 36 | 4 (≈ 5.15 µM)
isolate (source animal id): 37 | 4 (≈ 5.15 µM)
isolate (source animal id): 40 | ≤ 1
isolate (source animal id): 41 | ≤ 1
isolate (source animal id): 43 | ≤ 1
isolate (source animal id): 46 | 4 (≈ 5.15 µM)
isolate (source animal id): 49 | 2 (≈ 2.57 µM)
isolate (source animal id): 50 | 4 (≈ 5.15 µM)
isolate (source animal id): 51 | ≤ 1
isolate (source animal id): 52 | ≤ 1
isolate (source animal id): 53 | ≤ 1
isolate (source animal id): 55 | ≤ 1
isolate (source animal id): 56 | ≤ 1
isolate (source animal id): 57 | > 8
isolate (source animal id): 100 | 2 (≈ 2.57 µM)
isolate (source animal id): 103 | 4 (≈ 5.15 µM)
isolate (source animal id): 107 | 2 (≈ 2.57 µM)
isolate (source animal id): 108 | 2 (≈ 2.57 µM)
isolate (source animal id): 112 | > 8
isolate (source animal id): 113 | > 8
isolate (source animal id): 121 | 4 (≈ 5.15 µM)
isolate (source animal id): 122 | 8 (≈ 10.3 µM)
isolate (source animal id): 123 | > 8
isolate (source animal id): 126 | > 8
isolate (source animal id): 133 | > 8
isolate (source animal id): 135 | > 8
isolate (source animal id): 138 | > 8
isolate (source animal id): 141 | > 8
isolate (source animal id): 142 | > 8
isolate (source animal id): 145 | 2 (≈ 2.57 µM)
isolate (source animal id): 149 | 2 (≈ 2.57 µM)
isolate (source animal id): 151 | 2 (≈ 2.57 µM)
isolate (source animal id): 152 | 4 (≈ 5.15 µM)
isolate (source animal id): 154 | ≤ 1
isolate (source animal id): 159 | > 8
isolate (source animal id): 162 | > 8
isolate (source animal id): 170 | 2 (≈ 2.57 µM)
isolate (source animal id): 171 | ≤ 1
isolate (source animal id): 172 | 2 (≈ 2.57 µM)
isolate (source animal id): 173 | 2 (≈ 2.57 µM)
isolate (source animal id): 179 | ≤ 1
isolate (source animal id): 180 | ≤ 1
isolate (source animal id): 183 | ≤ 1
isolate (source animal id): 186 | ≤ 1
isolate (source animal id): 187 | 2 (≈ 2.57 µM)
isolate (source animal id): 188 | ≤ 1
isolate (source animal id): 190 | ≤ 1
isolate (source animal id): 191 | 2 (≈ 2.57 µM)
isolate (source animal id): 192 | ≤ 1
isolate (source animal id): 201 | 2 (≈ 2.57 µM)
isolate (source animal id): 202 | 2 (≈ 2.57 µM)
isolate (source animal id): 209 | 2 (≈ 2.57 µM)
isolate (source animal id): 211 | 2 (≈ 2.57 µM)
isolate (source animal id): 220 | 2 (≈ 2.57 µM)
isolate (source animal id): 221 | ≤ 1
isolate (source animal id): 223 | 2 (≈ 2.57 µM)
isolate (source animal id): 233 | 2 (≈ 2.57 µM)
isolate (source animal id): 237 | 4 (≈ 5.15 µM)
isolate (source animal id): 241 | 4 (≈ 5.15 µM)
isolate (source animal id): 252 | 8 (≈ 10.3 µM)
isolate (source animal id): 253 | 8 (≈ 10.3 µM)
isolate (source animal id): 259 | > 8
isolate (source animal id): 260 | 8 (≈ 10.3 µM)
isolate (source animal id): 262 | 4 (≈ 5.15 µM)
isolate (source animal id): 282 | > 8
isolate (source animal id): 287 | 8 (≈ 10.3 µM)
